Results published in patent US5525627A, “Esters of acyl carnitines with long-chain aliphatic alcohols and pharmaceutical compositions containing same having antimycotic activity” (Sigma-Tau Industrie Farmaceutiche Riunite S.p.A., priority 1992, dated 1996).

Test system: yeast-like fungi
Experiment: MIC / MFC for yeast-like fungi, all strains
Assay type: cell-based, Candida, Cryptococcus, Saccharomyces, Torulopsis
Details: versus susceptible strains; read-out: Mean MIC values
Procedure, shortened: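 Candida, Cryptococcus, Saccharomyces and Torulopsis strains tested by broth microdilution in Yeast Nitrogen Base with 0.15% asparagine and 1.0% glucose, buffered with 0.165 M MOPS; final inoculum about 5.0×10^4 CFU/ml from overnight (Cryptococcus 48-hour) Sabouraud cultures. MFC from spot-transfer of wells without visible growth onto Sabouraud agar.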

Compound `CCCCCCCCCCCOC(=O)C[C@H](C[N+](C)(C)C)OC(=O)CC(C)C` [ST 722, isovaleryl-L-carnitine undecyl ester chloride] has an MIC of 3.76 µg/mL.
